Here are results for five molecules from publication PMC3069126 (Journal of natural products, 2011).

Assay [1] has as its target T1, quinone reductase 2 (QR2) (Homo sapiens, UniProt P16083).
T1 sequence (P16083 1-231): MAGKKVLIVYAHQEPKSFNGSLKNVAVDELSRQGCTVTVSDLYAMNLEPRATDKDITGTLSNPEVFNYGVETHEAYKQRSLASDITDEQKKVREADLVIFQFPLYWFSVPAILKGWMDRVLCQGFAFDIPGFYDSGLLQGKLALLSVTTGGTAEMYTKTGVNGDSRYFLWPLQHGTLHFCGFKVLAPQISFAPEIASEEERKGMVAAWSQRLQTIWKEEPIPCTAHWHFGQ
Briefly: QR2 assay.

Another assay relates to ovine QR2. Briefly: Ultrafiltration LC-MS binding assay for QR2.
In a further assay the test system is Hepa1c1c7 cells. Briefly: Cytotoxicity assay. Conditions: Hepa-1c1c7, read-out: inhibition of Hepa1c1c7. It counts as cell-based.
In another assay the test system is MCF-7 cells. Briefly: Cytotoxicity assay. It counts as cell-based. The following applies: Homo sapiens, MCF7, read-out: inhibition of MCF-7.

In general, inhibition refers to the relative decrease from the control value, in per cent.

As to `O=c1c(O[C@@H]2O[C@H](CO)[C@@H](O)[C@H](O)[C@H]2O)c(-c2ccc(O)c(O)c2)oc2cc(O)cc(O)c12` [Compound 15, quercetin-3-O-β-D-glucoside], the “ability to inhibit QR2 (in words)” value in assay [1] was “able to inhibit QR2”. For `COc1c(-c2ccc(O)cc2)oc2cc(O[C@@H]3O[C@H](CO)[C@@H](O)[C@H](O)[C@H]3O)cc(O)c2c1=O` [Compound 14, 4′, 5,7-trihydroxy-3-methoxyflavone-7-O-β-D-glucopyranoside], the “response in LC-MS ultrafiltration binding assay with QR2” value in the assay with ovine QR2 is “positive response”. `CC(=O)O[C@H]1C(=O)[C@@]2(C)[C@H]([C@H](OC(=O)c3ccccc3)[C@]3(O)C[C@H](OC(=O)[C@H](O)[C@@H](NC(=O)c4ccccc4)c4ccccc4)C(C)=C1C3(C)C)[C@]1(OC(C)=O)CO[C@@H]1C[C@@H]2O` [paclitaxel]: the inhibition at 23.4 µM was determined as 57% in the assay with Hepa1c1c7 cells and 64% in the assay with MCF-7 cells. `COc1c(-c2ccc(O)cc2)oc2cc(O[C@@H]3O[C@H](CO[C@@H]4O[C@@H](CO)[C@H](O)[C@H]4O)[C@@H](O)[C@H](O)[C@H]3O)cc(O)c2c1=O` [Compound 10, 4′, 5,7-trihydroxy-3-methoxyflavone-7-O-α-L-arabinofuranosyl (1→6)-β-D-glucopyranoside]: the “response in LC-MS ultrafiltration binding assay with QR2” value with ovine QR2 is listed as “positive response”. For `CC[C@]1(O)C[C@@H]2CN(CCc3c([nH]c4ccccc34)[C@@](C(=O)OC)(c3cc4c(cc3OC)N(C)[C@H]3[C@@](O)(C(=O)OC)[C@H](OC(C)=O)[C@]5(CC)C=CCN6CC[C@]43[C@@H]65)C2)C1` [vinblastine], the inhibition at 49.4 µM with Hepa1c1c7 cells came to 90%; in the assay on MCF-7 cells it was 74%.
